These are literature values, as cited in patent publication US10137085B2, “Nanoemulsion for transdermal delivery and method of making the same” (Nano and Advanced Materials Institute Limited, priority 2014, dated 2018).

Structures can show the parent of a compound that is named as a salt. Where two headings read alike, the source gives them in different places.

The conditions of data set [1]: o/w microemulsion with oleyl alcohol and NMP, compared to aqueous solution.

With `COc1ccc([C@@H]2Sc3ccccc3N(CCN(C)C)C(=O)[C@@H]2OC(C)=O)cc1` [diltiazem HCl], in data set [1], the “enhancement of drug permeability” value is recorded as 520 fold.
For the molecule `C[C@]12CC[C@@H]3c4ccc(O)cc4CC[C@H]3[C@@H]1CC[C@@H]2O` [estradiol], the “enhancement of drug permeability” value in data set [1] is on record as 58 fold.
Regarding `CN(Cc1cnc2nc(N)nc(N)c2n1)c1ccc(C(=O)N[C@@H](CCC(=O)O)C(=O)O)cc1` [methotrexate], the “increase of permeation efficiency through skin” value reads like this: (solid-in-oil nanodispersion vs control aqueous solution) “two- to three”; (solid-in-oil nanodispersion with urea as enhancer vs control aqueous solution, after 24 h) “approximately 8.8 fold”.
